Experimental data: patent US11833185B2, “Anti-neurodegenerative therapeutic, method of manufacture, and use” (UNIVERSITY OF KENTUCKY RESEARCH FOUNDATION, priority 2017, dated 2023)
Where two headings read alike, the source gives them in different places. Where a SMILES comes first, the peptide text is derived from it.

How the values were obtained:
[1] = rat, in vivo, sc, 100 mg/kg
[2] = Plasma levels by LC-MS/MS after subcutaneous administration; type: in vivo, rat
MN9D neuronal cells [3] = experiment: Protection of mitochondrial potentials against rotenone, MPP+ and TaClo-induced cytotoxicity; type: cell-based; conditions: 100 nM pretreatment, 1, 3, 12, 24 hours
Procedure: (§1) Testing involved permutations of size and diversifying amino acid sequence at each residue position. Sequence design began with Proline-Proline-Glutamate-Alanine-Proline-Alanine-Glutamate-Aspartate-Arginine-Serine-Leucine-NH2. […] These properties were tested using the dopaminergic MN9D neuronal cell line. Each candidate peptide sequence was dissolved in citrate buffer and added to MN9D cells (Choi et al., 1992) that were cultured in Dulbecco's Modified Eagle's Medium [DMEM (containing pyridoxol HCl); Sigma, St. Louis, MO] supplemented with 10% Fetal Bovine serum (HyClone, Logan, UT), 50 U/ml penicillin and streptomycin to a final 100 nM concentration. Using LIVE/DEAD and JC-1 assays in MN9D neuronal cells, individual library sequences were measured for toxicity and loss of mitochondrial potentials at 1 and 3 hours post treatment. […] The remaining sequences were then tested for their ability to provide protection against neurotoxins rotenone, 1-methyl-4-phenylpyridinium (MPP+), and trichloromethyl-1,2,3,4-tetrahydro-β-carboline (TaClo).

MN9D neuronal cells [4] = experiment: LIVE/DEAD and JC-1 assays for toxicity and loss of mitochondrial potentials; conditions: 100 nM, 1 and 3 hours post treatment
Procedure: as §1

[5] = rat, in vivo, sc
[6] = tested on: striatum levels of DA, DOPAC, HVA, 5-HT, 5-HIAA, and NE; experiment: Striatum neurochemistry (RP-HPLC EC) after repeated intranasal administration; type: in vivo, normal Fischer 344 rats; conditions: for Turnover ratio 5-H1AA/5-HT / Turnover ratio (HVA + DOPAC)/DA / Turnover ratio DOPAC/DA / Turnover ratio HVA/DA / 5-HIAA / 5-HT / DA / DOPAC / HVA / NE: 5 days a week for 3 weeks, combined left and right striatum, mean; for 5-HIAA / 5-HT / DA / DOPAC / HVA / NE: wet tissue weight
Procedure: (§2) Groups of 12, 3 month old Fischer 344 rats were intranasally dosed 50 microliters (4 single 12.5 microliter administrations, 2 per nare, 5 minutes between each nare administration) of either vehicle, 1.1 mg/mL, or 3.5 mg/mL of AV6403 [Leu-Ala-Pro-Ala-Glu-Asp-NH2] (SEQ ID NO: 1) once a day for 5 days a week, for 3 weeks (5 consecutive days of dosing, 2 off days, repeated total of 3 times). Following day 21, rats were euthanized and brain tissue was recovered and sections removed and weighed for neurochemical analysis by Reverse-Phase High Pressure Liquid Chromatography Electrochemical detection (RP-HPLC EC).
Dopamine [DA], its major metabolites 3,4-Dihydroxy-Phenylacetic Acid (DOPAC) and Homovanillic Acid (HVA), 5-hydroxytryptamine (5-HT, serotonin), its metabolite 5-hydroxyindoleacetic acid (5-HIAA), and norepinephrine (NE) were measured in the striatum and substantia nigra (SN) for each group. In the striatum [TABLE 1], 1.1 mg/mL dosing of AV6403 led to a 20% and 25% reduction of DA and HVA levels [FIG. 1A-FIG. 1C], respectively, resulting in an increase in dopamine turnover (22% [DOPAC/DA] and 16% [[(HVA+DOPAC)/DA]), relative to saline vehicle treated rats [FIG. 2A-FIG. 2B]. […] NE levels were reduced in the striatum with about a 36% reduction for AV6403 1.1 mg/mL dosage versus vehicle [TABLE 1].
as §2, with “1.2” for “1.1”, “3.6” for “3.5”, “AV7624 [Glu-Ala-Pro-Phe-Glu-Asp-NH2]” for “AV6403 [Leu-Ala-Pro-Ala-Glu-Asp-NH2] (SEQ ID NO: 1)”, “RP-HPLC EC.” for “Reverse-Phase High Pressure Liquid Chromatography Electrochemical detection (RP-HPLC EC).”
DA, DOPAC, HVA, 5-HT, 5-HIAA, and NE were measured in the striatum and SN for each group. In the striatum [TABLE 5], 3.6 mg/mL dosing of AV7624 led to an approximate 18%, 39%, and 30% reduction of DA, DOPAC, and HVA levels [FIG. 6A-FIG. 6C], respectively, resulting in an about 18% decrease in dopamine turnover ([DOPAC/DA] and [(HVA+DOPAC)/DA]), relative to saline vehicle treated rats [FIG. 7A-FIG. 7B]. […] NE levels were reduced in the striatum in a dose dependent manner, with about a 32% reduction for the AV7624 3.6 mg/mL dosage versus vehicle [TABLE 5]

[7] = tested on: substantia nigra levels of DA, DOPAC, HVA, 5-HT, 5-HIAA, and NE; experiment: Substantia nigra neurochemistry (RP-HPLC EC) after repeated intranasal administration; type: in vivo, normal Fischer 344 rats; conditions: for Turnover ratio 5-HIAA/5-HT / Turnover ratio (HVA + DOPAC)/DA / Turnover ratio DOPAC/DA / Turnover ratio HVA/DA / 5-HIAA / 5-HT / DA / DOPAC / HVA / NE: 5 days a week for 3 weeks, combined left and right substantia nigra, mean; for 5-HIAA / 5-HT / DA / DOPAC / HVA / NE: wet tissue weight
Procedure: as §2
In the SN [TABLE 3], treatment of AV6403 led to about a 13% increase in DOPAC and a 11% reduction of HVA, depending on the dosage, [FIG. 4A-FIG. 4C] resulting in an increase in dopamine turnover (20% [DOPAC/DA] for 3.5 mg/mL dosage; 23% [(HVA+DOPAC)/DA] for 1.1 mg/mL) relative to saline vehicle treated rats [FIG. 5A-FIG. 5B]. Treatment with 1.1 mg/mL AV6403 decreased 5-HT by 10% in the SN, resulting in a 16% increase in serotonin turnover [5-HIAA/5-HT] [TABLE 4]. The higher dosage (3.5 mg/mL AV6403) increased NE levels in the SN by about 23% versus vehicle treated rats, respectively [TABLE 3].
as §2, with “1.2” for “1.1”, “3.6” for “3.5”, “AV7624 [Glu-Ala-Pro-Phe-Glu-Asp-NH2]” for “AV6403 [Leu-Ala-Pro-Ala-Glu-Asp-NH2] (SEQ ID NO: 1)”, “RP-HPLC EC.” for “Reverse-Phase High Pressure Liquid Chromatography Electrochemical detection (RP-HPLC EC).”
In the SN [TABLE 7], treatment with 3.6 mg/mL AV7624 led to about a 23%, 22%, and a 6% decrease in DA, DOPAC, and HVA [FIG. 9A-FIG. 9C], relative to saline vehicle treated rats, with minor effects on dopamine turnover [FIG. 10A-FIG. 10B]. Treatment with 3.6 mg/mL AV7624 decreased 5-HT by 20% and 5-HIAA by about 18% in the SN [TABLE 7], resulting in a minor effect on serotonin turnover [TABLE 8]. NE levels in the SN were decreased (17% and 13%) by both dosages (1.2 mg/mL and 3.6 mg/mL) versus vehicle treated rats, respectively [TABLE 7].

depression = conditions: person, intranasal spray 50 mg daily for 270 days
Procedure: A person presents with the diagnosis of depression. They are administered peptide by intranasal spray at a dosage of 50 mg daily for 270 days. At 1, 90, 180, 270 and 360 days they are tested/retested with a battery of mental status tests including Hamilton Depression Scale (HAMD), Mini Mental Status Exam (MMSE), Beck Depression Index (BDI), Montgomery-Asberg Depression Rating Scale (MADRS), Clinical Global Impression Scale (CGI), Patient Global Impression Scale (PGI), Structural Clinical Interview for Diagnostic and Statistic Manual of Mental Disorders IV (SCID).

[8] = 1.1 mg/mL intranasal, striatum, relative to saline vehicle treated rats
[9] = 1.1 mg/mL repeated intranasal, striatum, relative to saline treated rats
[10] = SN, depending on the dosage, relative to saline vehicle treated rats

## C[C@H](NC(=O)[C@@H]1CCCN1C(=O)[C@H](C)NC(=O)[C@@H](N)CCC(=O)O)C(=O)N[C@@H](CCC(=O)O)C(N)=O [AV2157, Glutamate-Alanine-Proline-Alanine-Glutamate-NH2] (H-EAPAE-NH2; N-terminus assumed)
[1]
  half-life: 50 to 60 min
[2]; 100 mg/kg s.c. in saline
  total lifetime in plasma: ~120 min
[2]; rat, plasma, sc, 100 mg/kg s.c. in saline, read-out: maximum plasma level
  Cmax: 1250 ng/mL
[2]; rat, plasma, sc, 100 mg/kg s.c. in saline, read-out: time of maximum plasma level post administration (converted)
  Tmax: 20 min
MN9D neuronal cells [3]
  protection against neurotoxins (rotenone, MPP+, TaClo): protection against neurotoxin exposure at all time points measured
MN9D neuronal cells [4]
  toxicity: low toxicity
[5]
  improved CNS bioavailability compared to AV6403: over 10 times

## CC(C)C[C@H](N)C(=O)N[C@@H](C)C(=O)N1CCC[C@H]1C(=O)N[C@@H](C)C(=O)N[C@@H](CCC(=O)O)C(=O)N[C@@H](CC(=O)O)C(N)=O [AV6403, Leu-Ala-Pro-Ala-Glu-Asp-NH2] (H-LAPAED-NH2; N-terminus assumed)
[1]
  half-life: 50 to 60 min
[2]; 30 and 100 mg/kg s.c.
  plasma lifetime as compared to the extracellular brain levels: longer lifetime
  time of maximum plasma levels post administration: 20 to 40 min
[2]; rat, plasma, sc, 30 mg/kg s.c., read-out: maximum plasma levels
  Cmax: 3500 ng/mL
[2]; rat, plasma, sc, 100 mg/kg s.c., read-out: maximum plasma levels
  Cmax: 6000 ng/mL
[6]; [8]
  increase in dopamine turnover [(HVA+DOPAC)/DA]: 16%
  increase in dopamine turnover [DOPAC/DA]: 22%
  reduction of DA levels: 20%
  reduction of HVA levels: 25%
[6]; 1.1 mg/mL intranasal, striatum, versus vehicle
  reduction of NE levels: ~36%
[6]; [9]
  increase in turnover [5-HIAA/5-HT]: 19%
  reduction of 5-HIAA: ~19%
  reduction of 5-HT: ~32%
[6]; 1.1 mg/ml intranasal
  Turnover ratio 5-H1AA/5-HT: 1.28
  Turnover ratio (HVA + DOPAC)/DA: 0.36
  Turnover ratio DOPAC/DA: 0.28
  Turnover ratio HVA/DA: 0.08
  5-HIAA: 326 ng/g
  5-HT: 257 ng/g
  DA: 9425 ng/g
  DOPAC: 2618 ng/g
  HVA: 699 ng/g
  NE: 45 ng/g
[6]; 3.5 mg/mL intranasal, striatum
  changes in DA turnover: minor changes
  increase of striatal DA levels: 8%
  increase of striatal DOPAC levels: 11%
[6]; 3.5 mg/ml intranasal
  Turnover ratio 5-H1AA/5-HT: 1.11
  Turnover ratio (HVA + DOPAC)/DA: 0.31
  Turnover ratio DOPAC/DA: 0.23
  Turnover ratio HVA/DA: 0.08
  5-HIAA: 437 ng/g
  5-HT: 393 ng/g
  DA: 12475 ng/g
  DOPAC: 2922 ng/g
  HVA: 935 ng/g
  NE: 66 ng/g
[6]; higher dosage (3.5 mg/mL) intranasal, striatum, relative to saline treated rats
  change of 5-HT, 5-HIAA and turnover: small increases
[7]; 1.1 mg/mL intranasal, SN
  decrease of 5-HT: 10%
  increase in serotonin turnover [5-HIAA/5-HT]: 16%
[7]; 1.1 mg/mL intranasal, SN, relative to saline vehicle treated rats
  increase in dopamine turnover [(HVA+DOPAC)/DA]: 23%
[7]; 1.1 mg/ml intranasal
  Turnover ratio 5-HIAA/5-HT: 0.58
  Turnover ratio (HVA + DOPAC)/DA: 0.37
  Turnover ratio DOPAC/DA: 0.22
  Turnover ratio HVA/DA: 0.15
  5-HIAA: 552 ng/g
  5-HT: 1014 ng/g
  DA: 1122 ng/g
  DOPAC: 232 ng/g
  HVA: 102 ng/g
  NE: 554 ng/g
[7]; 3.5 mg/mL intranasal, SN, relative to saline vehicle treated rats
  increase in dopamine turnover [DOPAC/DA]: 20%
[7]; 3.5 mg/mL intranasal, SN, versus vehicle treated rats
  increase of NE levels: about 23%
[7]; 3.5 mg/ml intranasal
  Turnover ratio 5-HIAA/5-HT: 0.54
  Turnover ratio (HVA + DOPAC)/DA: 0.34
  Turnover ratio DOPAC/DA: 0.24
  Turnover ratio HVA/DA: 0.11
  5-HIAA: 546 ng/g
  5-HT: 1050 ng/g
  DA: 1096 ng/g
  DOPAC: 253 ng/g
  HVA: 113 ng/g
  NE: 644 ng/g
[7]; [10]
  increase in DOPAC: ~13%
  reduction of HVA: 11%

## C[C@H](NC(=O)[C@@H]1CCCN1C(=O)[C@H](C)NC(=O)[C@@H](N)CCC(=O)O)C(=O)N[C@@H](CCC(=O)O)C(=O)N[C@@H](CC(=O)O)C(N)=O [SEQ ID NO: 11, Glutamate-Alanine-Proline-Alanine-Glutamate-Aspartate-NH2] (H-EAPAED-NH2; N-terminus assumed)
MN9D neuronal cells [3]
  protection against neurotoxins (rotenone, MPP+, TaClo): protection against neurotoxin exposure at all time points measured
MN9D neuronal cells [4]
  toxicity: low toxicity

## Ac-Leucine-D-Methionine-Proline-Alanine-deuterated Serine-Phenylalanine [SEQ ID NO: 9]
depression
  HAMD from day 1 over 360 days: improvement in HAMD
